Reference: US6525001B1, “Substituted pyrimidine and pyridine herbicides” (Mid-American Commercialization Corporation, priority 1997, dated 2003)

Legend:
Assay type in all cases: in vivo
[1] = tested on: cocklebur (Xanthium strumarium); test: Test C; design: key: 0 was no effect; 100 was complete control; conditions: PREEMERGENCE
[2] = tested on: field bindweed (Convolvulus arvensis); test: Test C; conditions: PREEMERGENCE
[3] = tested on: johnsongrass (Sorghum halepense); test: Test C; design: key: 0 was no effect; 100 was complete control; conditions: PREEMERGENCE
[4] = tested on: redroot pigweed (Amaranthus retroflexus); test: Test C; design: key: 0 was no effect; 100 was complete control; conditions: PREEMERGENCE
[5] = tested on: Spanishneedles (Bidens bipinnata); test: Test E pre-/postemergence/post directed
Procedure, shortened: (§1)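 Injury was scored visually on a 0 to 100 scale (100 = complete control) 13 to 21 days after treatment of greenhouse-grown plants. Test chemicals, in a surfactant-containing non-phytotoxic solvent, were sprayed onto soil within a day of planting, onto plants at the two to four leaf stage, or directed at the base of the plants.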

[6] = tested on: alexandergrass (Brachiaria plantaginea); test: Test E pre-/postemergence/post directed
Procedure, shortened: as §1

[7] = tested on: bermudagrass (Cynodon dactylon); test: Test E pre-/postemergence/post directed; conditions: POSTEMERGENCE, Rate 250 g/ha
Procedure, shortened: as §1

[8] = tested on: common groundsel (Senecio vulgaris); test: Test E pre-/postemergence/post directed
Procedure, shortened: as §1

[9] = tested on: common ragweed (Ambrosia elatior); test: Test E pre-/postemergence/post directed
Procedure, shortened: as §1

[10] = tested on: itchgrass (Rottboellia exaltata); test: Test E pre-/postemergence/post directed
Procedure, shortened: as §1

[11] = tested on: johnson grass (Sorghum halepense); test: Test E pre-/postemergence/post directed
Procedure, shortened: as §1

[12] = tested on: large crabgrass (Digitaria sanguinalis); test: Test E pre-/postemergence/post directed; conditions: POSTEMERGENCE, Rate 250 g/ha
Procedure, shortened: as §1

[13] = tested on: pitted morningglory (Ipomoea lacunosa); test: Test E pre-/postemergence/post directed
Procedure, shortened: as §1

[14] = tested on: sandbur (Cenchrus echinatus); test: Test E pre-/postemergence/post directed
Procedure, shortened: as §1

[15] = tested on: surinam grass (Brachiaria decumbens); test: Test E pre-/postemergence/post directed
Procedure, shortened: as §1

[16] = tested on: bermudagrass (Cynodon dactylon); test: Test E pre-/postemergence/post directed; design: key: 0 is no effect; 100 is complete control; conditions: PREEMERGENCE
Procedure, shortened: as §1

[17] = tested on: common purslane (Portulaca oleracea); test: Test E pre-/postemergence/post directed; design: key: 0 is no effect; 100 is complete control
Procedure, shortened: as §1

[18] = tested on: common ragweed (Ambrosia elatior); test: Test E pre-/postemergence/post directed; design: key: 0 is no effect; 100 is complete control; conditions: PREEMERGENCE
Procedure, shortened: as §1

[19] = tested on: goosegrass (Eleusine indica); test: Test E pre-/postemergence/post directed; design: key: 0 is no effect; 100 is complete control
Procedure, shortened: as §1

[20] = tested on: large crabgrass (Digitaria sanguinalis); test: Test E pre-/postemergence/post directed; design: key: 0 is no effect; 100 is complete control; conditions: PREEMERGENCE
Procedure, shortened: as §1

[21] = tested on: surinam grass (Brachiaria decumbens); test: Test E pre-/postemergence/post directed; design: key: 0 is no effect; 100 is complete control; conditions: PREEMERGENCE, Rate 250 g/ha
Procedure, shortened: as §1

Structure (SMILES): Cc1cnc(-c2ccc(C(F)(F)F)cc2)nc1Cc1cccc(C(F)(F)F)c1 [Example 1, 5-methyl-2-[4-(trifluoromethyl)phenyl]-4-[[3-(trifluoromethyl)phenyl]methyl]pyrimidine]
- Plant response rating, Cocklebur ([1]; Rate 35 g/ha): 0
- Plant response rating, Cocklebur ([1]; Rate 70 g/ha): 0
- Plant response rating, Cocklebur ([1]; Rate 140 g/ha): 0
- Plant response rating, Field bindweed ([2]; Rate 35 g/ha): 65
- Plant response rating, Field bindweed ([2]; Rate 70 g/ha): 50
- Plant response rating, Field bindweed ([2]; Rate 140 g/ha): 50
- Plant response rating, Johnsongrass ([3]; Rate 35 g/ha): 50
- Plant response rating, Johnsongrass ([3]; Rate 70 g/ha): 95
- Plant response rating, Johnsongrass ([3]; Rate 140 g/ha): 100
- Plant response rating, Redroot pigweed ([4]; Rate 35 g/ha): 100
- Plant response rating, Redroot pigweed ([4]; Rate 70 g/ha): 100
- Plant response rating, Redroot pigweed ([4]; Rate 140 g/ha): 100
- Plant response rating, Spanishneedles ([5]; POSTEMERGENCE, Rate 250 g/ha): 10
- Plant response rating, Spanishneedles ([5]; PREEMERGENCE, Rate 32 g/ha): 40
- Plant response rating, Spanishneedles ([5]; PREEMERGENCE, Rate 64 g/ha): 80
- Plant response rating, Spanishneedles ([5]; PREEMERGENCE, Rate 125 g/ha): 90
- Plant response rating, Alexandergrass ([6]; POSTEMERGENCE, Rate 250 g/ha): 90
- Plant response rating, Alexandergrass ([6]; PREEMERGENCE, Rate 32 g/ha): 10
- Plant response rating, Alexandergrass ([6]; PREEMERGENCE, Rate 64 g/ha): 75
- Plant response rating, Alexandergrass ([6]; PREEMERGENCE, Rate 125 g/ha): 90
- Plant response rating, Bermudagrass [7]: 30
- Plant response rating, Com. groundsel ([8]; POSTEMERGENCE, Rate 250 g/ha): 75
- Plant response rating, Com. groundsel ([8]; PREEMERGENCE, Rate 32 g/ha): 98
- Plant response rating, Com. ragweed ([9]; POSTEMERGENCE, Rate 250 g/ha): 70
- Plant response rating, Com. ragweed ([9]; PREEMERGENCE, Rate 32 g/ha): 90
- Plant response rating, Itchgrass ([10]; POSTEMERGENCE, Rate 250 g/ha): 85
- Plant response rating, Itchgrass ([10]; PREEMERGENCE, Rate 32 g/ha): 20
- Plant response rating, Itchgrass ([10]; PREEMERGENCE, Rate 64 g/ha): 20
- Plant response rating, Itchgrass ([10]; PREEMERGENCE, Rate 125 g/ha): 50
- Plant response rating, Itchgrass ([10]; PREEMERGENCE, Rate 250 g/ha): 95
- Plant response rating, Johnsongrass ([11]; POSTEMERGENCE, Rate 250 g/ha): 90
- Plant response rating, Johnsongrass ([11]; PREEMERGENCE, Rate 32 g/ha): 5
- Plant response rating, Johnsongrass ([11]; PREEMERGENCE, Rate 64 g/ha): 40
- Plant response rating, Johnsongrass ([11]; PREEMERGENCE, Rate 125 g/ha): 90
- Plant response rating, Large crabgrass [12]: 85
- Plant response rating, P. morninglory ([13]; POSTEMERGENCE, Rate 250 g/ha): 80
- Plant response rating, P. morninglory ([13]; PREEMERGENCE, Rate 32 g/ha): 70
- Plant response rating, P. morninglory ([13]; PREEMERGENCE, Rate 64 g/ha): 80
- Plant response rating, Sandbur ([14]; POSTEMERGENCE, Rate 250 g/ha): 10
- Plant response rating, Sandbur ([14]; PREEMERGENCE, Rate 32 g/ha): 20
- Plant response rating, Sandbur ([14]; PREEMERGENCE, Rate 64 g/ha): 65
- Plant response rating, Sandbur ([14]; PREEMERGENCE, Rate 125 g/ha): 95
- Plant response rating, Surinam grass ([15]; POSTEMERGENCE, Rate 250 g/ha): 30
- Plant response rating, Surinam grass ([15]; PREEMERGENCE, Rate 32 g/ha): 65
- Plant response rating, Surinam grass ([15]; PREEMERGENCE, Rate 64 g/ha): 35
- Plant response rating, Surinam grass ([15]; PREEMERGENCE, Rate 125 g/ha): 98
- Plant response rating, Bermudagrass ([16]; Rate 32 g/ha): 100
- Plant response rating, Bermudagrass ([16]; Rate 64 g/ha): 100
- Plant response rating, Bermudagrass ([16]; Rate 125 g/ha): 100
- Plant response rating, Bermudagrass ([16]; Rate 250 g/ha): 100
- Plant response rating, Com. purslane ([17]; POSTEMERGENCE, Rate 250 g/ha): 40
- Plant response rating, Com. purslane ([17]; PREEMERGENCE, Rate 32 g/ha): 98
- Plant response rating, Com. purslane ([17]; PREEMERGENCE, Rate 64 g/ha): 100
- Plant response rating, Com. purslane ([17]; PREEMERGENCE, Rate 125 g/ha): 100
- Plant response rating, Com. purslane ([17]; PREEMERGENCE, Rate 250 g/ha): 100
- Plant response rating, Com. ragweed ([18]; Rate 64 g/ha): 100
- Plant response rating, Com. ragweed ([18]; Rate 125 g/ha): 100
- Plant response rating, Com. ragweed ([18]; Rate 250 g/ha): 100
- Plant response rating, Goosegrass ([19]; POSTEMERGENCE, Rate 250 g/ha): 70
- Plant response rating, Goosegrass ([19]; PREEMERGENCE, Rate 32 g/ha): 100
- Plant response rating, Goosegrass ([19]; PREEMERGENCE, Rate 64 g/ha): 100
- Plant response rating, Goosegrass ([19]; PREEMERGENCE, Rate 125 g/ha): 100
- Plant response rating, Goosegrass ([19]; PREEMERGENCE, Rate 250 g/ha): 100
- Plant response rating, Large crabgrass ([20]; Rate 32 g/ha): 100
- Plant response rating, Large crabgrass ([20]; Rate 64 g/ha): 100
- Plant response rating, Large crabgrass ([20]; Rate 125 g/ha): 100
- Plant response rating, Large crabgrass ([20]; Rate 250 g/ha): 100
- Plant response rating, Surinam grass [21]: 100
